Common to all, as to assay type: in vivo, swine
Assay [1] deals with postpartum sows. As to the kind of experiment: Single timed injection 96 hours post-weaning and single timed insemination without estrus detection in postpartum sows (Example 3). The following applies: 50 mcg at 96 hours post-weaning. How it is done:
(§1) Approximately 170 postpartum sows were randomly divided into two equal groups comprised of controls and treated. Following weaning, the controls were detected for estrus and bred following the normal standard operating procedures for the farms on which they resided. The treated sows received a 50 mcg dose of deslorelin in SAIB at 96 hours post-weaning and were bred with a single insemination 28+/−2 hours later with no regard to estrus detection. The sows were examined for pregnancy by ultrasound at 21 days and slaughtered around 28 days post breeding. The entire reproductive tract was removed and corpora lutea and embryos were counted.

In a further assay the test system is mature postpartum sows. As to the kind of experiment: Intravulvar injection at estrus detection in mature postpartum sows, AI breeding (Example 2). As to the method:
Sows were assigned randomly in blocks of two to either control or to be injected intravulvar with 50 mcg of deslorelin in SAIB at the time of estrus detection for sows first detected in estrus in the a.m. and 12 hours later for those first detected in estrus in the p.m. Treated animals were bred AI upon detected estrus and again 24 hours later if still in estrus. Controls received a saline injection on first detected estrus behavior estrus detection and were bred according to the farm's normal procedures.

The test system of assay [2] is postpartum sows. As to the kind of experiment: Pregnancy rate after deslorelin treatment in sows, summary of Tables 2-5. As to the method: as §1, with “counted. Postpartum sows were randomly distributed into three different groups comprised of Controls, Treatment 1, and Treatment 2, with the exception of Site 3, which was divided into two groups, Control and Treatment 2. Control sows were detected for estrus following weaning, and bred following the normal standard operating procedures for the farms on which they resided. Treatment 1 sows were detected for estrus following weaning, and received a 50 mcg dose of deslorelin in the morning when standing and were bred by AI 4 hours later and again at 24+/−2 hours later. Treatment 2 sows received a 50 mcg dose of deslorelin in SAIB at 96 or 120 hours post-weaning and were bred with a single insemination 28+/−2 hours later with no regard to estrus detection. […]” for “counted.”

Assay [3] has as its system postpartum sows. As to the kind of experiment: Litter size after deslorelin treatment in postpartum sows at three farm sites (Example 4). From the text:
Postpartum sows were randomly distributed into three different groups comprised of Controls, Treatment 1, and Treatment 2, with the exception of Site 3, which was divided into two groups, Control and Treatment 2. Control sows were detected for estrus following weaning, and bred following the normal standard operating procedures for the farms on which they resided. Treatment 1 sows were detected for estrus following weaning, and received a 50 mcg dose of deslorelin in the morning when standing and were bred by AI 4 hours later and again at 24+/−2 hours later. Treatment 2 sows received a 50 mcg dose of deslorelin in SAIB at 96 or 120 hours post-weaning and were bred with a single insemination 28+/−2 hours later with no regard to estrus detection.

[4] abbreviates: slaughtered around 28 days post breeding.
[5] abbreviates: 50 μg intravulvar at first estrus detection, AI, AI again if in estrus next day.
Where [6] appears, read: Site 1, Treatment 1: 50 mcg when standing in estrus, AI 4 hours later and again at 24+/-2 hours.
Setting [7] is: Site 1, Treatment 2: 50 mcg in SAIB at 96 or 120 hours post-weaning, single insemination 28+/-2 hours later, no estrus detection.
[8] abbreviates: Site 2, Treatment 1: 50 mcg when standing in estrus, AI 4 hours later and again at 24+/-2 hours.
Setting [9] is: Site 2, Treatment 2: 50 mcg in SAIB at 96 or 120 hours post-weaning, single insemination 28+/-2 hours later, no estrus detection.
Where [10] appears, read: Site 3, Treatment 2: 50 mcg in SAIB at 96 or 120 hours post-weaning, single insemination 28+/-2 hours later, no estrus detection.

Take `CCNC(=O)[C@@H]1CCCN1C(=O)[C@H](CCCN=C(N)N)NC(=O)[C@H](CC(C)C)NC(=O)[C@@H](Cc1c[nH]c2ccccc12)NC(=O)[C@H](Cc1ccc(O)cc1)NC(=O)[C@H](CO)NC(=O)[C@H](Cc1c[nH]c2ccccc12)NC(=O)[C@H](Cc1cnc[nH]1)NC(=O)[C@@H]1CCC(=O)N1` [Deslorelin, deslorelin]: the “Pregnancy Rate” value in the assay with postpartum sows [1] (single insemination 28+/-2 hours later, no estrus detection) is 71%; in the assay on mature postpartum sows (setting [5]) it was 91% (n = 75). In the assay with postpartum sows [1] (single insemination 28+/-2 hours later, 84 sows in group), the “Sows Pregnant” value came out at 60. The “Embryo Survival” value in the assay with postpartum sows [1] (setting [4]) was found to be 64%. Moreover, the “Live Embryos” value with postpartum sows [1] (setting [4]) is listed as 13.4. Also, the “Length of Estrus” value with mature postpartum sows (setting [5]) was 40.81 (n = 69) Hrs. Further, in the assay with mature postpartum sows (50 mcg intravulvar at estrus detection), the “pregnancy rates, Control versus Treated groups (in words)” value was “no significant difference”. In addition, in the assay on postpartum sows [2] (Table 6), the “pregnancy rates (in words)” value is on record as “normal pregnancy rates”. For the same molecule, in the assay with postpartum sows [2] (Treatment 2 (timed injection, single timed insemination), 250 sows in group, data of Tables 2-5 summarized), the “Number Pregnant” value is given as 177. Moreover, the “% Pregnant” value with postpartum sows [2] (Treatment 2 (timed injection, single timed insemination), data of Tables 2-5 summarized) came out at 70.80%. The “Avg. Total Live Pigs” value with postpartum sows [3] (setting [6]) is recorded as 11.03; in the assay with postpartum sows [3] (setting [7]) it was 11.24; in the assay with postpartum sows [3] (setting [8]), 10.25; in the assay on postpartum sows [3] (setting [9]), 10.02; with postpartum sows [3] (setting [10]), 10.27. Besides, the “Avg. Total Pigs Born” value with postpartum sows [3] (setting [6]) is given as 12.10; in the assay with postpartum sows [3] (setting [7]), 12.37; with postpartum sows [3] (setting [8]), 11.21; with postpartum sows [3] (setting [9]), 10.88; with postpartum sows [3] (setting [10]), 11.09. Moreover, the “litter sizes (in words)” value in the assay with postpartum sows [3] (Tables 3-5, regardless of estrus detection) is “normal litter sizes”.

Values taken from patent publication US10898539B2, “Process for the synchronization of ovulation for timed breeding without heat detection” (priority 2003, dated 2021).
